Experimental data: paper PMC6222329 (Molecules : A Journal of Synthetic Chemistry and Natural …, 2018)

What was measured:
Type in all cases: biochemical
[1] = molecular target: T1, AChE (Electrophorus electricus) (Electrophorus electricus, UniProt O42275); test: AChE inhibition, Ellman's method
T1 construct: purchased Sigma-Aldrich (Steinheim, Germany)
Method: (§1) The assay was performed in two steps.
(§2) All enzymes were obtained from Sigma-Aldrich (Steinheim, Germany). Ellman’s reagent and the substrates were obtained from Fluka (Buchs, Switzerland). The chemicals used to prepare the buffer solution were purchased from Merck (Darmstadt, Germany).
(§3) The enzyme inhibitory activities of the synthesized compounds were investigated by applying Ellman’s method. Enzyme solutions were dissolved in gelatin solution (1%; 2.5 units/mL). […] Then, the reaction was initiated by the addition of Ellman’s reagent 5,5′-Dithiobis(2-nitrobenzoic acid) (DTNB; 20 µL/well, 10 mM) and the substrate (10 µL/well, 75 mM). […] The enzyme solution was processed as a control. All readings were adjusted with blank-reading. All assays were performed in four independent wells. […] Absorbance differences between the two readings were taken, and percentage inhibition rates were calculated according to the following formula: % Inhibition=[(A(C)−A(B))−(A(I)−A(B))]/(A(C)−A(B))×100.
(§4) • Blank (B): the well in which the inhibitor compound and substrate were not added; • Control (C): the well where the inhibitor compound was not added; • A(B): the difference in absorbance reading for the blank; • A(C): the difference in absorbance reading for the control; • A(I): the difference in absorbance reading for the inhibitor compounds.

[2] = molecular target: T2, AChE (Human) (Homo sapiens, UniProt P22303); test: AChE inhibition, Ellman's method
T2 construct: purchased Sigma-Aldrich (Steinheim, Germany)
Method: as §1, §2, §3, §4

[3] = molecular target: T3, BChE (Human) (Homo sapiens, UniProt P06276); test: BChE inhibition, Ellman's method
T3 construct: purchased Sigma-Aldrich (Steinheim, Germany)
Method: as §1, §2, §3, §4

[4] = molecular target: T4, BChE (Equine) (Equus caballus, UniProt P81908); test: biochemical
T4 construct: purchased Sigma-Aldrich (Steinheim, Germany)
Method: as §1, §2, §3, §4

[5] = read-out: BChE (Equine) inhibitory activity (%) ± SD

T3 sequence (P06276 29-602): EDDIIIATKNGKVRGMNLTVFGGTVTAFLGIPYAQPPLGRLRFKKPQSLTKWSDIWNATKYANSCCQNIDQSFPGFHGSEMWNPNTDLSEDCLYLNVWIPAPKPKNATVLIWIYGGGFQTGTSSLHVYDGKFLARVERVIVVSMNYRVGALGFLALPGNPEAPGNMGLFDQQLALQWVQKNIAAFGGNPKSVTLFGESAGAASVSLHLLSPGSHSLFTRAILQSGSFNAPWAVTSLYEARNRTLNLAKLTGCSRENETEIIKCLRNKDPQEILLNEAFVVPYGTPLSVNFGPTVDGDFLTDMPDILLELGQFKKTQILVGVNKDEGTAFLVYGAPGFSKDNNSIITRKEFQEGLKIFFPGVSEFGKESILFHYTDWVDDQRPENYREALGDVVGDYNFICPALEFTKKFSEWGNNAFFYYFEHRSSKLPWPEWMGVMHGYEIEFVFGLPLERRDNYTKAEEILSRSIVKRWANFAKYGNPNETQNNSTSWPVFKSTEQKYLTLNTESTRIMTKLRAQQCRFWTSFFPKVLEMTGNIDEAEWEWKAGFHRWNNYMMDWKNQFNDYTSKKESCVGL
T4 sequence (P81908 whole entry): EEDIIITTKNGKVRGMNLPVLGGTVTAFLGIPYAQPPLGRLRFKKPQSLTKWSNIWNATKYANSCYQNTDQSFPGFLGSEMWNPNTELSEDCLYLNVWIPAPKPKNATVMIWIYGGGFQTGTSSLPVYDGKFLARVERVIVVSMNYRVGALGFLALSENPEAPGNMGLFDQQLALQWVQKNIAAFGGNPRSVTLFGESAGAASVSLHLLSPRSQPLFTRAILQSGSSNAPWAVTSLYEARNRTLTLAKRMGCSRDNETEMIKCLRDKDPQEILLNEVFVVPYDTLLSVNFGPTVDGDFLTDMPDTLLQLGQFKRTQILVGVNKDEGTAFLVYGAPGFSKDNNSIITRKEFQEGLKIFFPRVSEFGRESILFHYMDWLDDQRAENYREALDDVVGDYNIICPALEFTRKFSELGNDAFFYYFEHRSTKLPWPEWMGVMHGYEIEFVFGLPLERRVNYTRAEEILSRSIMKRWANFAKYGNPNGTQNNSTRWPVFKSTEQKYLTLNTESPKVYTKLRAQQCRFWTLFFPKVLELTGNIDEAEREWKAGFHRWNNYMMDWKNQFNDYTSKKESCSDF
T2 sequence (P22303 32-614): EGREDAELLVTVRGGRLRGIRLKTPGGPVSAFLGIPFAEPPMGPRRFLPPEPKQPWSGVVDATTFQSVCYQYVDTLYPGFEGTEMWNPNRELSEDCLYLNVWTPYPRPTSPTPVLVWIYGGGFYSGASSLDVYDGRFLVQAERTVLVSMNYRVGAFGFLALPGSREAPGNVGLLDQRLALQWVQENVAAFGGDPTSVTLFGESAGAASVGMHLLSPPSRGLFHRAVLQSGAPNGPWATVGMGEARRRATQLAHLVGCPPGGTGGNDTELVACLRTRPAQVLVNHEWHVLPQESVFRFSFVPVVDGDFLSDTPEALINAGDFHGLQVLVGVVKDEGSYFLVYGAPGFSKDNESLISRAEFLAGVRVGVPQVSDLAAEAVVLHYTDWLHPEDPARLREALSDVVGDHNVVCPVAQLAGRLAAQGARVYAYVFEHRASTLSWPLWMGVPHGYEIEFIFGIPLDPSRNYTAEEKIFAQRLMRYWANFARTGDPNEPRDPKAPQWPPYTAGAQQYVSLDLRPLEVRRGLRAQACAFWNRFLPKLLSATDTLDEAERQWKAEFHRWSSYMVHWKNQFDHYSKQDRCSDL
T1 sequence (O42275 24-633): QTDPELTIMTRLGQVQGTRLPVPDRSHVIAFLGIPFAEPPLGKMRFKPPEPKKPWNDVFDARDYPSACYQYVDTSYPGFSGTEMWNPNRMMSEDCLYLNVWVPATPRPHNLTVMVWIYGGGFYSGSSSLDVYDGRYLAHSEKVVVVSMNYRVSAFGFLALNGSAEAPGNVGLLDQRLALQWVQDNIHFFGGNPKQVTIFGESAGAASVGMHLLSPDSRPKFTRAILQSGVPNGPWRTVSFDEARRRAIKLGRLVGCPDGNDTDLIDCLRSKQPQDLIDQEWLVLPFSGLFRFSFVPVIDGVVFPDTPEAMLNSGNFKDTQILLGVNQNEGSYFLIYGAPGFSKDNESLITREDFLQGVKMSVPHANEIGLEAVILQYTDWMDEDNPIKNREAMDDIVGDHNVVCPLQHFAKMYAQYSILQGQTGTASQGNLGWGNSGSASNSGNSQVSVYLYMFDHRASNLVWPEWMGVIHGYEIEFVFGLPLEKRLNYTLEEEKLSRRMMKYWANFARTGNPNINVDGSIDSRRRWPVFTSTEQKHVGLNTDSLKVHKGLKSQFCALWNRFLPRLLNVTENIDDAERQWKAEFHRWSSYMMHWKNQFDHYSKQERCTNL

Structure (SMILES): O=C(CSC(=S)N1CCN(c2ncccn2)CC1)Nc1c2ccccc2nc2ccccc12 [Compound 4j, 2-(9-Acridinylamino)-2-oxoethyl 4-(pyrimidin-2-yl)piperazine-1-carbodithioate]
- AChE (Electrophorus electricus) inhibitory activity (%) ± SD ([1]; 10^-3 M): 69.08±1.67%
- AChE (Electrophorus electricus) inhibitory activity (%) ± SD ([1]; 10^-4 M): 2.88 ± 0.18%
- AChE (Human) inhibitory activity (%) ± SD ([2]; 10^-3 M): 66.71±1.06%
- AChE (Human) inhibitory activity (%) ± SD ([2]; 10^-4 M): 5.97 ± 0.22%
- BChE (Human) inhibitory activity (%) ± SD ([3]; 10^-3 M): 90.51±2.18%
- BChE (Human) inhibitory activity (%) ± SD ([3]; 10^-4 M): 30.77 ± 1.20%
- BChE (Equine) inhibitory activity (%) ± SD ([4]; 10^-3 M): 92.87±2.84%
- BChE (Equine) inhibitory activity (%) ± SD ([4]; 10^-4 M): 27.86 ± 1.07%

Structure (SMILES): O=C(CSC(=S)N1CCN(Cc2ccccc2)CC1)Nc1c2ccccc2nc2ccccc12 [Compound 4k, 2-(9-Acridinylamino)-2-oxoethyl 4-benzylpiperazine-1-carbodithioate]
- AChE (Electrophorus electricus) inhibitory activity (%) ± SD ([1]; 10^-3 M): 58.74±1.69%
- AChE (Electrophorus electricus) inhibitory activity (%) ± SD ([1]; 10^-4 M): 8.62 ± 0.22%
- AChE (Human) inhibitory activity (%) ± SD ([2]; 10^-3 M): 59.17±1.11%
- AChE (Human) inhibitory activity (%) ± SD ([2]; 10^-4 M): 7.21 ± 0.18%
- BChE (Human) inhibitory activity (%) ± SD ([3]; 10^-3 M): 70.98±2.39%
- BChE (Human) inhibitory activity (%) ± SD ([3]; 10^-4 M): 20.65 ± 1.20%
- BChE (Equine) inhibitory activity (%) ± SD ([4]; 10^-3 M): 74.62±2.75%
- BChE (Equine) inhibitory activity (%) ± SD ([4]; 10^-4 M): 25.14 ± 1.42%

Structure (SMILES): O=C(CSC(=S)N1CCN(C2CCCCC2)CC1)Nc1c2ccccc2nc2ccccc12 [Compound 4l, 2-(9-Acridin-ylamino)-2-oxoethyl 4-cyclohexylpiperazine-1-carbodithioate]
- AChE (Electrophorus electricus) inhibitory activity (%) ± SD ([1]; 10^-3 M): 56.11±2.46%
- AChE (Electrophorus electricus) inhibitory activity (%) ± SD ([1]; 10^-4 M): 3.90 ± 0.09%
- AChE (Human) inhibitory activity (%) ± SD ([2]; 10^-3 M): 58.33±1.39%
- AChE (Human) inhibitory activity (%) ± SD ([2]; 10^-4 M): 7.29 ± 0.18%
- BChE (Human) inhibitory activity (%) ± SD ([3]; 10^-3 M): 85.71±2.40%
- BChE (Human) inhibitory activity (%) ± SD ([3]; 10^-4 M): 42.60 ± 1.53%
- BChE (Equine) inhibitory activity (%) ± SD ([4]; 10^-3 M): 84.88±3.34%
- BChE (Equine) inhibitory activity (%) ± SD ([4]; 10^-4 M): 45.88 ± 1.62%

Structure (SMILES): O=C(CSC(=S)N1CCN(c2ccc(F)cc2)CC1)Nc1c2ccccc2nc2ccccc12 [Compound 4p, 2-(9-Acridinylamino)-2-oxoethyl 4-(4-fluorophenyl)piperazine-1-carbodithioate]
- AChE (Electrophorus electricus) inhibitory activity (%) ± SD ([1]; 10^-3 M): 98.66±2.98%
- AChE (Electrophorus electricus) inhibitory activity (%) ± SD ([1]; 10^-4 M): 48.40 ± 1.18%
- AChE (Human) inhibitory activity (%) ± SD ([2]; 10^-3 M): 96.90±2.17%
- AChE (Human) inhibitory activity (%) ± SD ([2]; 10^-4 M): 49.51 ± 1.50%
- BChE (Human) inhibitory activity (%) ± SD ([3]; 10^-3 M): 92.55±2.51%
- BChE (Human) inhibitory activity (%) ± SD ([3]; 10^-4 M): 40.71 ± 1.08%
- BChE (Equine) inhibitory activity (%) ± SD ([4]; 10^-3 M): 93.27±3.07%
- BChE (Equine) inhibitory activity (%) ± SD ([4]; 10^-4 M): 48.65 ± 1.14%

Structure (SMILES): O=C(CSC(=S)N1CCN(C(=O)c2ccco2)CC1)Nc1c2ccccc2nc2ccccc12 [Compound 4q, 2-(9-Acridinylamino)-2-oxoethyl 4-(furan-2-carbonyl)piperazine-1-carbodithioate]
- AChE (Electrophorus electricus) inhibitory activity (%) ± SD ([1]; 10^-3 M): 68.60±1.57%
- AChE (Electrophorus electricus) inhibitory activity (%) ± SD ([1]; 10^-4 M): 16.35 ± 0.39%
- AChE (Human) inhibitory activity (%) ± SD ([2]; 10^-3 M): 70.29±1.18%
- AChE (Human) inhibitory activity (%) ± SD ([2]; 10^-4 M): 20.28 ± 0.51%
- BChE (Human) inhibitory activity (%) ± SD ([3]; 10^-3 M): 95.29±2.16%
- BChE (Human) inhibitory activity (%) ± SD ([3]; 10^-4 M): 42.48 ± 1.22%
- BChE (Equine) inhibitory activity (%) ± SD ([4]; 10^-3 M): 92.00±3.44%
- BChE (Equine) inhibitory activity (%) ± SD ([4]; 10^-4 M): 39.90 ± 1.36%

Structure (SMILES): COc1cc2c(cc1OC)C(=O)C(CC1CCN(Cc3ccccc3)CC1)C2 (stereo not shown) [Donepezil, reference compound]
- inhibition at 1000 µM ([3]; 10^-3 M, read-out: BChE (Human) inhibitory activity (%) ± SD): 85.2 ± 2.01%
- inhibition at 100 µM ([3]; 10^-4 M, read-out: BChE (Human) inhibitory activity (%) ± SD): 76.5 ± 2.08%
- inhibition at 10 µM ([3]; 10^-5 M, read-out: BChE (Human) inhibitory activity (%) ± SD): 60.2 ± 1.37%
- inhibition at 1 µM ([3]; 10^-6 M, read-out: BChE (Human) inhibitory activity (%) ± SD): 52.5 ± 1.05%
- inhibition at 0.1 µM ([3]; 10^-7 M, read-out: BChE (Human) inhibitory activity (%) ± SD): 32.7 ± 0.95%
- inhibition at 0.001 µM [4, 5]: 9.23 ± 0.08%
- inhibition at 0.01 µM [4, 5]: 15.3 ± 0.61%
- inhibition at 0.1 µM [4, 5]: 38.1 ± 0.89%
- inhibition at 1 µM [4, 5]: 54.3 ± 1.16%
- inhibition at 10 µM [4, 5]: 59.2 ± 1.54%
- inhibition at 100 µM [4, 5]: 71.7 ± 2.16%
- inhibition at 1000 µM [4, 5]: 82.2 ± 2.91%
